Assay results as given in paper PMC12021085 (2025).

Assays:
[1] = test system: NOP56-G4 (DNA, G4) GGGCCTGGGCCTGGGCCTGGG; test: solution NMR structure; settings: Na+ (1 mM sodium phosphate); pH 7, 25 °C; 0.5 mM DNA, 1.5 mM PDS; stacks on terminal G-tetrad
[2] = test system: NOP56-G4 (DNA, G4) GGGCCTGGGCCTGGGCCTGGG; test: CD spectroscopy; settings: K+ (100 mM KCl), Na+ (1 mM sodium phosphate); pH 7, 25 °C; 20 µM DNA, 20 µM PDS; antiparallel G4 features
[3] = test system: NOP56-G4 (DNA, G4) GGGCCTGGGCCTGGGCCTGGG; test: ITC; settings: Na+ (1 mM sodium phosphate); pH 7.0, room temperature; 200 µM PDS titrated into 10 µM DNA
[4] = test system: NOP56-G4 (DNA, G4) GGGCCTGGGCCTGGGCCTGGG; test: CD melting at 295 nm; settings: Na+ (1 mM sodium phosphate); pH 7; 3 equivalents PDS; Tm 44.8 to 58.8 °C
[5] = test system: NOP56-G4 template (with annealed Cy5 primer) (DNA, G4) GGGCCTGGGCCTGGGCCTGGGTTTTTTTATAGTGAGTCGTATTA/TAATACGACTCACTATA; test: DNA polymerase stop assay (Klenow fragment); settings: K+ (100 mM KCl), Na+ (50 mM NaCl), Mg2+ (10 mM MgCl2); 10 mM Tris-HCl pH 7.9, 1 mM DTT, 37 °C; PDS concentration-dependent stalling

binding [1]: yes
binding [2]: yes
KD [3]: 0.64 ± 0.02 µM
Tm increase [4]: ~ 14 °C
binding [5]: yes
SMILES: NCCOc1cc(C(=O)Nc2cc(OCCN)c3ccccc3n2)nc(C(=O)Nc2cc(OCCN)c3ccccc3n2)c1
